Experimental data taken from patent publication US20150167062A1, “Genome-wide Method of Assessing Interactions Between Chemical Entities And Their Target Molecules” (Whitehead Institute for Biomedical Research, priority 2012, published 2015).

Tested on: MM1.S cells, merged BRD4/JQ1 genomic regions
Assay: Specificity analysis: overlap between JQ1 Chem-Seq and BRD4 ChIP-Seq data
Type: binding, human
Method: Chemical crosslinking was terminated by addition of TRIS buffer, pH 7.5, to a final concentration of 300 mM TRIS. Cells were harvested using a silicon scraper, centrifuged and the derived pellets washed three times with PBS. Cell nuclei were prepared as follows: cells were lysed in 50 mM HEPES, pH 7.5, 140 mM NaCl, 1 mM EDTA, 10% Glycerol, 0.5% NP-40, 0.25% Triton X-100 plus protease inhibitor cocktail ‘complete’ (Roche), and cell nuclei were washed once with 10 mM Tris-HCL, pH 8.0, 200 mM NaCl, 1 mM EDTA, 0.5 mM EGTA and protease inhibitors. […] Finally, purified DNA fragments were massively parallel sequenced and the sequencing data analyzed as described (33). […]
All ChIP-Seq and Chem-seq datasets were aligned using Bowtie (version 0.12.2) (35) to build version NCBI36/HG18 of the human genome. […] To obtain the normalized read density of ChIP-Seq datasets in any region, ChIP-Seq reads aligning to the region were extended automatically by MACS and the density of reads per basepair (bp) was calculated. The density of reads in each region was normalized to the total number of million mapped reads producing read density in units of reads per million mapped reads per by (rpm/bp).
Chem-Seq and ChIP-Seq data was analyzed to identify genomic regions with substantial JQ 1 Chem-Seq signal but no significant BRD4 ChIP-Seq signal, reasoning these sites might represent off-target interactions of JQ1. […]

Structure (SMILES): Cc1sc2c(c1C)C(c1ccc(Cl)cc1)=N[C@@H](CC(=O)OC(C)(C)C)c1nnc(C)n1-2 [JQ1]
- Off-target interaction (JQ1 Chem-Seq signal at regions of the genome without BRD4) (MM1.S cells, GLM differential binding analysis): no identifiable off-target interaction
- Genomic regions with significant differences in JQ1 Chem-Seq and BRD4 ChIP-Seq signals (out of 25,060 merged regions, FDR<=0.25, MM1.S cells): 10 regions
